Read-outs that look alike come from different tables or passages of the source. Blank lines part the entries; values can stand above or below the compound they belong to.
Tests used:
SD rats = test: Safety research: single tail vein injection toxicity, maximum tolerated dose; assay type: in vivo; conditions: male SD rats; for Maximum tolerated dose: observed 48 hours
Method: (§1) Male Sprague-Dawley (SD) rats (SPF grade) were selected, divided into groups (3 rats per group), and administered via tail vein injection. Single administration, observed for 48 hours after administration. During the experiment, two cage-side observations and two detailed clinical observations were performed every day (observation was carried out before and 2 hours after the administration on the day of administration). Toxicity study animals were weighed and recorded every day, and food consumption of each animal for 24±1 hours was measured and recorded every day. At the end of the experiment (D3), euthanasia was performed by carbon dioxide inhalation anesthesia and the death of the animal was ensured by abdominal aorta/venous bleeding, and gross anatomy was performed and recorded.

[1] = as above; assay type: in vivo; conditions: rat, in vivo, male SD rats, observed 48 hours
Method: as §1

KCNQ2 potassium channel = molecular target: T1, KCNQ2 potassium channel (Homo sapiens, UniProt O43526); test: Potassium ion channel opener activity test (FDSS/μCELL detection, FluxOR); assay type: cell-based
T1 construct: expressed in transfected cells; host or cells: CHO (CHO-KCNQ2, kept under G418 selection)
Method: After the digestion was completed, 7 mL culture medium (90% DMEM/F12+10% FBS+500 μg/mL G418) was added to neutralize, centrifugated for 3 minutes at 800 rpm, the supernatant was aspirated, then 5 mL culture medium was added to resuspend, and then the cells were counted.
Cell plating: the density to 3×10^4/well was adjusted according to the results of cell counting. After standing at room temperature for 30 minutes, placed in a 37° C. CO2 incubator and incubated overnight for 16-18 hours. The cell density reached about 80%.
Fluorescent dye incubation: discarded the cell culture medium, 80 μL/well loading buffer was added, and incubated in the dark at room temperature for 60 minutes.
Compound incubation: discarded the loading buffer, 80 μL/well prepared compound solution was added, incubated in the dark at room temperature for 20 minutes.
Fluorescence data collection: FDSS/μCELL instrument was used for real-time fluorescence signal recording, excitation wavelength was 480 nm, emission wavelength was 540 nm, recorded 1 times per second, recorded for 10 seconds after baseline and started to add 20 μL/well stimulation buffer, and then continued to record until the end of 180 seconds.
20 mM compound stock solution in DMSO was prepared, 10 μL of 20 mM compound stock solution was took into 20 μL DMSO solution, serially diluted 3 times to 8 intermediate concentrations; then the intermediate concentrations of the compound were took to the test buffer, diluted 200 times to get the final concentration to be tested, 80 μL was took and added to the test plate.
Each concentration set 3 duplicates.
The excitement effect of the compound was calculated by the following formula: […]

[2] = Pharmacokinetics and cerebral blood ratio after single administration in male ICR mice; assay type: in vivo; conditions: for AUC(0-inf) / AUC(0-t) / Cmax / half-life / Tmax: plasma
Method: Take a healthy male ICR mouse (weight range: 18-22 grams in), grouping, 24 mice/group, and 3 mice/time point, fasting for more than 12 hours (only oral administration group), administration, blood was collected by cardiac puncture at time points 0.083 (only iv), 0.25, 0.5, 1, 2, 4, 6 (only po), 8 and 24 hours, at least 0.3 mL of whole blood was collected to EDTA-K2 anti-coagulation tube, within half an hour, plasma was taken by centrifuge (6000 revolutions, 8 minutes, 4° C.), frozen at −20° C. for later use. At the same time, brain tissue was collected in the oral group. After being rinsed with the physiological saline, the water absorbing paper was used to dry, weighed, and frozen at −20° C. for later use.

[3] = CHO-KCNQ2 cells, fluorescence, FDSS/μCELL, read-out: EC50

Compound: Cc1cc2c(c(C)c1NC(=O)CC(C)(C)C)CCN2Cc1ccc(F)cc1 [Compound B2, reference compound]
- toxicity (SD rats; dose of 1 mg/kg): unacceptable toxicity
- MTD at 48 h [1]: 0.3 to 1 mg/kg

Compound: Cc1cc2c(c(C)c1NC(=O)CC(C)(C)C)CCCCN2Cc1ccc(F)s1 [Compound A7, N-(1-((5-fluorothiophene-2-yl)methyl)-6,8-dimethyl-2,3,4,5-tetrahydro-1H-benzazepine-7-yl)-3,3-dimethylbutamide]
- EC50 (KCNQ2 potassium channel): 16 nM
- Maximum tolerated dose (SD rats): MTD > 1 mg/kg

Compound: Cc1cc2c(c(C)c1NC(=O)CC(C)(C)C)CCCCN2Cc1ccc(F)cc1 [Compound A1, N-(1-(4-fluorobenzyl)-6,8-dimethyl-2,3,4,5-tetrahydro-1H-benzazepine-7-yl)-3,3-dimethylbutanamide]
- EC50 (KCNQ2 potassium channel): 83 nM
- F ([2]; gavage 1 mg/kg vs intravenous 0.3 mg/kg): 56.9%
- AUC(0-inf) ([2]; mouse, intravenous 0.3 mg/kg): 74 ng·h/mL
- AUC(0-t) ([2]; mouse, intravenous 0.3 mg/kg): 73 ng·h/mL
- Cmax ([2]; mouse, intravenous 0.3 mg/kg): 110 ng/mL
- half-life ([2]; mouse, intravenous 0.3 mg/kg): 5.32 h
- AUC(0-inf) ([2]; mouse, po, gavage 1 mg/kg): 139 ng·h/mL
- AUC(0-t) ([2]; mouse, po, gavage 1 mg/kg): 138 ng·h/mL
- Cmax ([2]; mouse, po, gavage 1 mg/kg): 94.4 ng/mL
- Tmax ([2]; mouse, po, gavage 1 mg/kg): 0.5 h
- half-life ([2]; mouse, po, gavage 1 mg/kg): 5.42 h
- Maximum tolerated dose (SD rats): MTD > 1 mg/kg

Compound: Cc1cc2c(c(C)c1NC(=O)CCC1CCCC1)CCCCN2Cc1ccc(F)cc1 [Compound A2, 3-cyclopentyl-N-(1-(4-fluorobenzyl)-6,8-dimethyl-2,3,4,5-tetrahydro-1H-benzazepine-7-yl)propionamide]
- EC50 (KCNQ2 potassium channel): 37 nM
- Maximum tolerated dose (SD rats): MTD > 1 mg/kg

Compound: Cc1cc2c(c(C)c1NC(=O)CC(C)(C)C)CCCN2Cc1ccc(F)cc1 [Compound B1, reference compound]
- toxicity (SD rats; dose of 0.3 mg/kg): unacceptable toxicity
- MTD at 48 h [1]: 0.06 to 0.3 mg/kg

- EC50 (KCNQ2 potassium channel; [3]): 133 nM
Compound: Cc1cc2c(c(C)c1NC(=O)CC1(C)CC1)CCCCN2Cc1ccc(F)cc1 [Compound A5, N-(1-(4-fluorobenzyl)-6,8-dimethyl-2,3,4,5-tetrahydro-1H-benzazepine-7-yl)-2-(1-methylcyclopropyl)acetamide]

Compound: Cc1cc2c(c(C)c1NC(=O)CCC1CCCC1)CCCCN2Cc1ccc(F)s1 [Compound A8, 3-cyclopentyl-N-(1-((5-fluorothiophene-2-yl)methyl)-6,8-dimethyl-2,3,4,5-tetrahydro-1H-benzazepine-7-yl)propionamide]
- EC50 (KCNQ2 potassium channel): 48 nM
- Maximum tolerated dose (SD rats): MTD > 1 mg/kg

- EC50 (KCNQ2 potassium channel; [3]): 271 nM
Compound: CCCC(=O)Nc1c(C)cc2c(c1C)CCCCN2Cc1ccc(F)cc1 [Compound A3, N-(1-(4-fluorobenzyl)-6,8-dimethyl-2,3,4,5-tetrahydro-1H-benzazepine-7-yl)butanamide]

- EC50 (KCNQ2 potassium channel; [3]): 165 nM
- F ([2]; gavage 2.5 mg/kg vs intravenous 0.5 mg/kg): 43.39%
- Kp at 1 h ([2]; mouse, brain, single oral 2.5 mg/kg, 1 h): 1.1
- Kp at 2 h ([2]; mouse, brain, single oral 2.5 mg/kg, 2 h): 1.1
- Kp at 4 h ([2]; mouse, brain, single oral 2.5 mg/kg, 4 h): 1.3
- Kp at 8 h ([2]; mouse, brain, single oral 2.5 mg/kg, 8 h): 1.1
- AUC(0-inf) ([2]; mouse, intravenous 0.5 mg/kg): 255 ng·h/mL
- AUC(0-t) ([2]; mouse, intravenous 0.5 mg/kg): 235 ng·h/mL
- Cmax ([2]; mouse, intravenous 0.5 mg/kg): 294 ng/mL
- half-life ([2]; mouse, intravenous 0.5 mg/kg): 1.9 h
- AUC(0-inf) ([2]; mouse, po, gavage 2.5 mg/kg): 541 ng·h/mL
- AUC(0-t) ([2]; mouse, po, gavage 2.5 mg/kg): 510 ng·h/mL
- Cmax ([2]; mouse, po, gavage 2.5 mg/kg): 257 ng/mL
- Tmax ([2]; mouse, po, gavage 2.5 mg/kg): 0.5 h
- half-life ([2]; mouse, po, gavage 2.5 mg/kg): 1.95 h
Compound: C#CC(C)(C)CC(=O)Nc1c(C)cc2c(c1C)CCCCN2Cc1ccc(F)cc1 [Compound A4, N-(1-(4-fluorobenzyl)-6,8-dimethyl-2,3,4,5-tetrahydro-1H-benzazepine-7-yl)-3,3-dimethylpent-4-ynamide]

Compound: Cc1cc2c(c(C)c1NC(=O)CC(C)(C)C)CCCCN2Cc1ccc(Cl)s1 [Compound A6, N-(1-((5-chlorothiophene-2-yl)methyl)-6,8-dimethyl-2,3,4,5-tetrahydro-1H-benzazepine-7-yl)-3,3-dimethylbutamide]
- EC50 (KCNQ2 potassium channel): 21 nM
- Maximum tolerated dose (SD rats): MTD > 1 mg/kg
